Read-outs that look alike come from different tables or passages of the source.
Assays:
[1] = test system: acutely dissociated and purified rat OPCs; experiment: Acute OL differentiation assay (MBP expression/cell, immunofluorescent image quantification); type: cell-based; details: Rattus norvegicus
Summary of the method: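 Oligodendrocyte precursor cells were enriched from P6-P7 Sprague–Dawley rat brains by immunopanning (RAN-2 and GalC depletion, O4 selection), plated at 5000 cells/well in serum-free, mitogen-free differentiation media on PDL/laminin 96-well view plates, centrifuged at 200×g, and pre-incubated 1–2 h before test compounds were added in quadruplicate. On DIV4, cells were fixed, stained for MBP and DAPI, imaged automatically, and MBP expression per cell was quantified.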

expanded OPCs = experiment: cells; details: for viability at 0.1 µM / viability at 1 µM / viability at 10 µM: Rattus norvegicus, 72 h; for 0.1 µM (% DMSO) / 1 µM (% DMSO) / 10 µM (% DMSO): alamarBlue viability of expanded OPCs, relative to DMSO control; for 0.1 µM (% DMSO): compound at 0.1 µM; for 1 µM (% DMSO): compound at 1 µM; for 10 µM (% DMSO): compound at 10 µM
Summary of the method: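 Expanded OPCs seeded at 10,000 cells/well in differentiation media, then exposed to NCC library compounds at 10, 1 and 0.1 µM (quadruplicate, 0.1% DMSO) for three days. Viability read as alamarBlue fluorescence (560/590 nm) after 4 h at 37 °C; tunicamycin 5 ng/ml served as toxicity control.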

[2] = 0.4 uM test compound, relative to quetiapine, sheet "All OLga data", read-out: OL differentiation, 0.4 uM (% Quet)
[3] = 2 uM test compound, relative to quetiapine, sheet "All OLga data", read-out: OL differentiation, 2 uM (% Quet)
[4] = read-out: 0.1 µM (% DMSO), alamarBlue viability, NCC library compound at 0.1 µM, sheet "All Tox data"
[5] = read-out: 1 µM (% DMSO), alamarBlue viability, NCC library compound at 1 µM, sheet "All Tox data"
[6] = read-out: 10 µM (% DMSO), alamarBlue viability, NCC library compound at 10 µM, sheet "All Tox data"
[7] = test compound at 2 uM, NCC library screen, sheet "All OLga data", relative to quetiapine, read-out: 2 uM (% Quet)
[8] = test compound at 10 uM, NCC library screen, sheet "All OLga data", relative to quetiapine, read-out: 10 uM (% Quet)
[9] = test compound at 2 uM, MBP expression relative to quetiapine, NCC library screen, sheet "All OLga data", read-out: 2 uM (% Quet)
[10] = test compound at 10 uM, MBP expression relative to quetiapine, NCC library screen, sheet "All OLga data", read-out: 10 uM (% Quet)
[11] = read-out: 0.1 µM (% DMSO), alamarBlue viability of expanded OPCs, compound at 0.1 µM, sheet All Tox data
[12] = read-out: 1 µM (% DMSO), alamarBlue viability of expanded OPCs, compound at 1 µM, sheet All Tox data
[13] = read-out: 10 µM (% DMSO), alamarBlue viability of expanded OPCs, compound at 10 µM, sheet All Tox data
[14] = 10 uM test compound, relative to quetiapine, sheet "All OLga data", read-out: OL differentiation, 10 uM (% Quet)

| SMILES | activation at 2 µM [1, 3] | viability at 0.1 µM (expanded OPCs; [4]) | viability at 1 µM (expanded OPCs; [5]) | viability at 10 µM (expanded OPCs; [6]) | activation at 2 µM [1, 7] | activation at 10 µM [1, 8] | 0.1 µM (% DMSO) (expanded OPCs) | 1 µM (% DMSO) (expanded OPCs) | 10 µM (% DMSO) (expanded OPCs) | also measured |
| --- | --- | --- | --- | --- | --- | --- | --- | --- | --- | --- |
| C=C1/C(=C\C=C2/CCC[C@]3(C)[C@@H]([C@H](C)CCCC(C)(C)O)CC[C@@H]23)C[C@@H](O)C[C@@H]1O [Calcitriol] | 30.3% | 99.4% | 108% | 11% |  |  |  |  |  | activation at 0.4 µM [1, 2]: 8.9% |
| C[C@H](CS)C(=O)N1CCC[C@H]1C(=O)O [Captopril] |  | 90.7% | 93.2% | 99.1% | 8% | 8.4% |  |  |  |  |
| NC(=O)N1c2ccccc2C=Cc2ccccc21 [Carbamazepine] |  |  |  |  |  |  | 107.0 % DMSO | 99.7 % DMSO | 103.7 % DMSO | activation at 2 µM [1, 9]: -5.2%; activation at 10 µM [1, 10]: -13.7% |
| C[C@@](Cc1ccc(O)c(O)c1)(NN)C(=O)O [Carbidopa] |  |  |  |  |  |  | 108.9 % DMSO | 101.2 % DMSO | 82.3 % DMSO | activation at 2 µM [1, 9]: -35.6%; activation at 10 µM [1, 10]: -121% |
| CN(C)CCOC(c1ccc(Cl)cc1)c1ccccn1 (centres unmarked) [Carbinoxamine] |  | 92.8% | 73.8% | 57.6% | 7.4% | -28.8% |  |  |  |  |
| CCCC(C)(COC(N)=O)COC(=O)NC(C)C (centres unmarked) [Carisoprodol] |  |  |  |  |  |  | 92.1 % DMSO | 90.4 % DMSO | 89.3 % DMSO | activation at 2 µM [1, 9]: -33%; activation at 10 µM [1, 10]: -33% |
| CCCCCCNC(=O)n1cc(F)c(=O)[nH]c1=O [Carmofur] | -84.8% |  |  |  |  |  |  |  |  | activation at 0.4 µM [1, 2]: -28.7%; viability at 0.1 µM (expanded OPCs; [11]): 90.5%; viability at 1 µM (expanded OPCs; [12]): 76.1%; viability at 10 µM (expanded OPCs; [13]): 14.6% |
| COc1ccccc1OCCNCC(O)COc1cccc2[nH]c3ccccc3c12 (centres unmarked) [Carvedilol] | -95.9% |  |  |  |  |  |  |  |  | activation at 0.4 µM [1, 2]: -16.1%; viability at 0.1 µM (expanded OPCs; [11]): 101%; viability at 1 µM (expanded OPCs; [12]): 54.5%; viability at 10 µM (expanded OPCs; [13]): 12% |
| N[C@@H](C(=O)N[C@@H]1C(=O)N2C(C(=O)O)=C(Cl)CS[C@H]12)c1ccccc1 [Cefaclor] |  | 90.3% | 94.6% | 106% | -10.8% | 27.4% |  |  |  |  |
| N[C@@H](C(=O)N[C@@H]1C(=O)N2C(C(=O)O)=C(CSc3c[nH]nn3)CS[C@H]12)c1ccc(O)cc1 [Cefatrizine] | 11.1% |  |  |  |  |  |  |  |  | activation at 10 µM [1, 14]: -10.4%; viability at 0.1 µM (expanded OPCs; [11]): 99.1%; viability at 1 µM (expanded OPCs; [12]): 95.1%; viability at 10 µM (expanded OPCs; [13]): 104% |
| Cc1nnc(SCC2=C(C(=O)O)N3C(=O)[C@@H](NC(=O)Cn4cnnn4)[C@H]3SC2)s1 [Cefazolin] |  | 95.1% | 92.5% | 96.9% | 6.4% | 0.95% |  |  |  |  |
| C=CC1=C(C(=O)O)N2C(=O)[C@@H](NC(=O)/C(=N\O)c3csc(N)n3)[C@H]2SC1 [Cefdinir] |  | 86.5% | 90.2% | 84.8% | 13.5% | 23% |  |  |  |  |
| C=CC1=C(C(=O)O)N2C(=O)[C@@H](NC(=O)/C(=N\OCC(=O)O)c3csc(N)n3)[C@H]2SC1 [Cefixime] |  | 82.1% | 68.5% | 67.3% | 6.6% | 63.5% |  |  |  |  |
| CO/N=C(\C(=O)N[C@@H]1C(=O)N2C(C(=O)O)=C(COC(C)=O)CS[C@H]12)c1csc(N)n1 [Cefotaxime] |  |  |  |  |  |  | 97.0 % DMSO | 88.3 % DMSO | 82.3 % DMSO | activation at 2 µM [1, 9]: 9.9%; activation at 10 µM [1, 10]: 8.5% |
| CO[C@@]1(NC(=O)Cc2cccs2)C(=O)N2C(C(=O)O)=C(COC(N)=O)CS[C@@H]21 [Cefoxitin] |  |  |  |  | 4.1% | 0.14% | 88.0 % DMSO | 88.0 % DMSO | 85.5 % DMSO |  |
| COCC1=C(C(=O)OC(C)OC(=O)OC(C)C)N2C(=O)[C@@H](NC(=O)/C(=N\OC)c3csc(N)n3)[C@H]2SC1 (some centres unmarked) [Cefpodoxime proxetil] | -7.7% |  |  |  |  |  |  |  |  | activation at 10 µM [1, 14]: -20.6%; viability at 0.1 µM (expanded OPCs; [11]): 96.9%; viability at 1 µM (expanded OPCs; [12]): 90.7%; viability at 10 µM (expanded OPCs; [13]): 98% |
| CO/N=C(\C(=O)N[C@@H]1C(=O)N2C(C(=O)O)=C(COC(N)=O)CS[C@H]12)c1ccco1 [Cefuroxime] |  |  |  |  |  |  | 91.1 % DMSO | 94.9 % DMSO | 91.5 % DMSO | activation at 2 µM [1, 9]: 13.5%; activation at 10 µM [1, 10]: 13.9% |
| Cc1ccc(-c2cc(C(F)(F)F)nn2-c2ccc(S(N)(=O)=O)cc2)cc1 [Celecoxib] |  |  |  |  |  |  | 94.3 % DMSO | 89.6 % DMSO | 87.2 % DMSO | activation at 2 µM [1, 9]: 14.8%; activation at 10 µM [1, 10]: 9% |
| CC1=C(C(=O)O)N2C(=O)[C@@H](NC(=O)[C@H](N)c3ccccc3)[C@H]2SC1 [Cephalexin] | -1.3% |  |  |  |  |  |  |  |  | activation at 10 µM [1, 14]: -4.5%; viability at 0.1 µM (expanded OPCs; [11]): 103%; viability at 1 µM (expanded OPCs; [12]): 110%; viability at 10 µM (expanded OPCs; [13]): 112% |
| COCc1c(C(C)C)nc(C(C)C)c(/C=C/[C@@H](O)C[C@@H](O)CC(=O)O)c1-c1ccc(F)cc1 [Cerivastatin] | -191% |  |  |  |  |  |  |  |  | activation at 0.4 µM [1, 2]: -38.8%; viability at 0.1 µM (expanded OPCs; [11]): 97.3%; viability at 1 µM (expanded OPCs; [12]): 52.3%; viability at 10 µM (expanded OPCs; [13]): 11.5% |
| O=C(O)COCCN1CCN(C(c2ccccc2)c2ccc(Cl)cc2)CC1 (centres unmarked) [Cetirizine] |  | 92.3% | 89.3% | 87.4% | 9.7% | 9.5% |  |  |  |  |
| NC[C@H]1CC[C@H](C(=O)Oc2ccc(CCC(=O)O)cc2)CC1 [Cetraxate] | -6.2% |  |  |  |  |  |  |  |  | activation at 10 µM [1, 14]: -5.4%; viability at 0.1 µM (expanded OPCs; [11]): 103%; viability at 1 µM (expanded OPCs; [12]): 92.1%; viability at 10 µM (expanded OPCs; [13]): 104% |
| C[C@H](CCC(=O)O)[C@H]1CC[C@H]2[C@@H]3[C@H](O)C[C@@H]4C[C@H](O)CC[C@]4(C)[C@H]3CC[C@]12C [Chenodeoxycholic Acid] |  |  |  |  | -24.3% | -7.9% | 111.3 % DMSO | 107.5 % DMSO | 110.8 % DMSO |  |
| O=C(O)CCCc1ccc(N(CCCl)CCCl)cc1 [Chlorambucil] |  |  |  |  |  |  |  |  |  | activation at 2 µM ([1]; read-out: 2 uM (% Quet)): -18.6%; activation at 10 µM ([1]; read-out: 10 uM (% Quet)): -105%; viability at 0.1 µM (expanded OPCs; read-out: 0.1 µM (% DMSO)): 88%; viability at 1 µM (expanded OPCs; read-out: 1 µM (% DMSO)): 80.8%; viability at 10 µM (expanded OPCs; read-out: 10 µM (% DMSO)): 57.4% |
| O=C(N[C@H](CO)[C@H](O)c1ccc([N+](=O)[O-])cc1)C(Cl)Cl [Chloramphenicol] |  |  |  |  |  |  | 87.1 % DMSO | 93.2 % DMSO | 90.9 % DMSO | activation at 2 µM [1, 9]: 9.3%; activation at 10 µM [1, 10]: 1.1% |
| CNC1=Nc2ccc(Cl)cc2C(c2ccccc2)=[N+]([O-])C1 [Chlordiazepoxide] |  | 91.2% | 93.8% | 90.6% | -0.9% | 23.8% |  |  |  |  |
| NS(=O)(=O)c1cc2c(cc1Cl)N=CNS2(=O)=O [Chlorothiazide] |  |  |  |  | -11.1% | -11.8% | 88.9 % DMSO | 90.2 % DMSO | 89.0 % DMSO |  |
| Oc1c(Cl)cc(Cl)c2cccnc12 [Chloroxine] |  |  |  |  |  |  | 24.3 % DMSO | 10.2 % DMSO | 8.9 % DMSO | activation at 0.08 µM ([1]; test compound at 0.08 uM, NCC library screen, sheet "All OLga data", relative to quetiapine, read-out: 0.08 uM (% Quet)): -87.1% |
| CN(C)CCC(c1ccc(Cl)cc1)c1ccccn1 (centres unmarked) [Chlorpheniramine] | 10.5% | 86.5% | 77.7% | 46.7% | 7.6% |  |  |  |  | activation at 0.4 µM [1, 2]: 8.7%; activation at 0.4 µM ([1]; test compound at 0.4 uM, NCC library screen, sheet "All OLga data", relative to quetiapine, read-out: 0.4 uM (% Quet)): -6.7% |

— article PMC5011342, “A high throughput drug screening assay to identify compounds that promote oligodendrocyte differentiation using acutely dissociated and purified oligodendrocyte precursor cells” (BMC Research Notes, 2016)
